Measurements: patent US11951094B2, “TLR2 modulator compounds, pharmaceutical compositions and uses thereof” (Axial Therapeutics, Inc., priority 2020, dated 2024)

What was measured:
Format in all cases: cell-based
[1] = molecular target: T1, TLR2 (Mus musculus, UniProt Q9QUN7); test: TLR2 functional assay, cytokine release from RAW 264.7 mouse macrophage cell line; conditions: average of all runs
T1 construct: endogenous in cells; host or cells: RAW 264.7
In short: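 RAW 264.7 cells plated (about 40,000 per well) and treated with compounds at varying concentrations for 6–24 h (or overnight). Released cytokines in supernatant (e.g. TNF-alpha, IL-1, IL-10, IL-12) measured by ELISA or MSD multiplex; EC50 fitted.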

[2] = molecular target: T2, TLR2 (Homo sapiens, UniProt O60603); test: TLR2 agonist screening assay, HEK-Blue TLR2 reporter cell line (NF-kB-driven SEAP, absorbance at 600 nm); set-up: host or cells: HEK-293 (HEK-Blue TLR2 reporter cell line); conditions: HEK-Blue TLR2 reporter cells, agonist mode
T2 sequence (O60603 21-784): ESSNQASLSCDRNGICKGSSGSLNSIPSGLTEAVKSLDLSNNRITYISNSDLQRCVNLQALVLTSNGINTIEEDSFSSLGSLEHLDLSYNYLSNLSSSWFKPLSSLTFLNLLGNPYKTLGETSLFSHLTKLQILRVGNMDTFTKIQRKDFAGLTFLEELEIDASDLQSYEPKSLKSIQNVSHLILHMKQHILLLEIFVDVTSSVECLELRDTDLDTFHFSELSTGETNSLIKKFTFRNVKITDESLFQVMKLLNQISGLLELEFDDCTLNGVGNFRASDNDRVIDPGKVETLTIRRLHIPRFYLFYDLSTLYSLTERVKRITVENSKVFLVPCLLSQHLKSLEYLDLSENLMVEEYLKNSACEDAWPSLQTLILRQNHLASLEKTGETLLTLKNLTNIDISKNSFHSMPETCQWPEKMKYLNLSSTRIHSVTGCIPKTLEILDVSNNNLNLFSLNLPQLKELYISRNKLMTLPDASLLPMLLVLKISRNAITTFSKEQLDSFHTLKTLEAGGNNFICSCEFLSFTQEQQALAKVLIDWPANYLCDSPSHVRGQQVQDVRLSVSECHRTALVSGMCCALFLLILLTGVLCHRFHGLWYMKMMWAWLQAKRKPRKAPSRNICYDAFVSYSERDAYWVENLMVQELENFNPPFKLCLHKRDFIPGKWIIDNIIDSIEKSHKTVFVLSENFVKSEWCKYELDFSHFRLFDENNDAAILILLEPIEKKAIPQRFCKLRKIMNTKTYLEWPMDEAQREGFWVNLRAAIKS
In short: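 TLR2 engagement is scored through NF-kB-induced secreted alkaline phosphatase in HEK-293 cells, detected by substrate colour change at 600 nm after overnight compound treatment at 1% final DMSO. Potency is expressed as EC50.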

[3] = molecular target: T2, TLR2; test: TLR2 in vitro functional assay, cytokine release from human monocytic cell line THP-1; conditions: THP-1 human monocytic cell line, average of all runs
Method: Cells of the immune system respond to TLR agonists in part by secreting cytokines. Functional assays for TLR2 agonists measure cytokine release from purified immune cells or immortalized cell lines derived from immune cells. Cytokine release is measured by standard ELISA approaches or multiplexed analysis using the Meso Scale Discovery (MSD) platform.
Following assay measurements utilizing either HEK-Blue detection or cytokine release, all data is analyzed with the GraphPad Prism8 statistical package to determine EC50, binding and activity metrics for the TLR2 modulators. […]
Numerous cell lines derived from various cell types can respond to TLR2 agonists with stereotyped cytokine and chemokine secretion. In particular, cell lines derived from macrophages respond robustly to TLR2 agonists by secreting a wide array of cytokines, including (but not limited to) TNF-alpha, IL-1, IL-10 and IL-12. The human monocytic cell line THP-1, the mouse macrophage line RAW-264.7, and the rat macrophage line NR8383 were used. For each assay, the respective cell lines were plated into 96-well plates overnight and then treated the following day with various TLR2-engaging compounds at varying concentrations. The next day, supernatants were collected and assayed by multiplex immunodetection for cytokines released (MSD detection kits for respective species).
Data provided in Table 5 is generated using protocols described in Example 45 and 46.

T1 sequence (Q9QUN7 25-784): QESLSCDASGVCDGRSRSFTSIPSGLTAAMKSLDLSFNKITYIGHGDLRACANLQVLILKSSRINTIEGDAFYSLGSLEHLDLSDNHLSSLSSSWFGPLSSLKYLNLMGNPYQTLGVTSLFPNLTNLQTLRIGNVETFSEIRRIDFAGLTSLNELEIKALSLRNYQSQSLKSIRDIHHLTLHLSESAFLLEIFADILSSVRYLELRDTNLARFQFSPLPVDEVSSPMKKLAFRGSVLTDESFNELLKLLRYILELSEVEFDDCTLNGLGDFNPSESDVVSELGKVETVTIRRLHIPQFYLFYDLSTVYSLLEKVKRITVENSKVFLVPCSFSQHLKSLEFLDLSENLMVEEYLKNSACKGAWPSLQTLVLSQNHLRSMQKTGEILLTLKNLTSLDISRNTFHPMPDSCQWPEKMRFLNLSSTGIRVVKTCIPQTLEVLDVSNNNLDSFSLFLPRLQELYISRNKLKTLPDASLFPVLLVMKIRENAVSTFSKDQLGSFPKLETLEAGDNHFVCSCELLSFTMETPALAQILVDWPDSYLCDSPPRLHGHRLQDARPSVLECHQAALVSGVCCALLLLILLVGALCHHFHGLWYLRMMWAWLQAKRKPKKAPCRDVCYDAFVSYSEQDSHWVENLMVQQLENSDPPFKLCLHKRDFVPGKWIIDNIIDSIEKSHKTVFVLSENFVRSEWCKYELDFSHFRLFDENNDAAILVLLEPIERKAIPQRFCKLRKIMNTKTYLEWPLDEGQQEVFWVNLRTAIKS

| EC50 [1] | EC50 ([2]; average of all runs (Table 4)) | EC50 [3] | EC50 ([2]; average of all runs (Table 3)) | Structure (SMILES) |
| --- | --- | --- | --- | --- |
| > 1000 nM | 0.1 to 50 nM | 0.1 to 50 nM | – | CCCCCCCCCCCCCCNC(=O)[C@@H]1CN(C(=O)c2ccc(C(=O)N3C[C@@H](C(=O)N[C@H]4C[C@@H]4c4ccccc4)[C@H](C(=O)N[C@H]4C[C@@H]4c4ccccc4)C3)cc2)C[C@H]1OC [Compound 109, (3S,4S)-1-(4-((3S,4R)-3-methoxy-4-(tetradecylcarbamoyl)pyrrolidine-1-carbonyl)benzoyl)-N3,N4-bis((1S,2R)-2-phenylcyclopropyl)pyrrolidine-3,4-dicarboxamide] |
| > 1000 nM | 0.1 to 50 nM | 0.1 to 50 nM | – | CCCCCCCCCCCCCCC(=O)N[C@H]1CN(C(=O)c2ccc(C(=O)N3C[C@@H](C(=O)N[C@H]4C[C@@H]4c4ccccc4)[C@H](C(=O)N[C@H]4C[C@@H]4c4ccccc4)C3)cc2)C[C@@H]1OC [Compound 101, (3S,4S)-1-(4-((3S,4S)-3-methoxy-4-pentadecanamidopyrrolidine-1-carbonyl)benzoyl)-N3,N4-bis((1S,2R)-2-phenylcyclopropyl) pyrrolidine-3,4-dicarboxamide] |
| – | 0.1 to 50 nM | 0.1 to 50 nM | – | CCCCCCCCCCCCCCNC(=O)[C@H]1CN(C(=O)c2ccc(C(=O)N3C[C@@H](C(=O)N[C@H]4C[C@@H]4c4ccccc4)[C@H](C(=O)N[C@H]4C[C@@H]4c4ccccc4)C3)cc2)C[C@H]1O (relative stereo) [Compound 104, (3S,4S)-1-(4-((3S*,4S*)-3-hydroxy-4-(tetradecylcarbamoyl)pyrrolidine-1-carbonyl)benzoyl)-N3,N4-bis((1S,2R)-2-phenylcyclopropyl)pyrrolidine-3,4-dicarboxamide] |
| – | – | 0.1 to 50 nM | 0.1 to 50 nM | CCCCCCCCCCCCCCC(=O)N[C@@H]1CCN(C(=O)c2ccc(C(=O)N3C[C@@H](C(=O)N[C@H]4C[C@@H]4c4ccccc4)[C@H](C(=O)N[C@H]4C[C@@H]4c4ccccc4)C3)cc2)C1 [Compound 027, (3S,4S)-1-(4-((R)-3-pentadecanamidopyrrolidine-1-carbonyl)benzoyl)-N3,N4-bis((1S,2R)-2-phenylcyclopropyl)pyrrolidine-3,4-dicarboxamide] |
| – | – | 0.1 to 50 nM | 0.1 to 50 nM | CCCCCCCC(=O)N1CCN(C(=O)c2ccc(C(=O)N3C[C@@H](C(=O)N[C@H]4C[C@@H]4c4ccccc4)[C@H](C(=O)N[C@H]4C[C@@H]4c4ccccc4)C3)cc2)CC1C(=O)NCCc1ccc(F)cc1 (stereo partly drawn) [Compound 036, (3S,4S)-1-(4-(3-((4-fluorophenethyl)carbamoyl)-4-octanoylpiperazine-1-carbonyl)benzoyl)-N3,N4-bis((1S,2R)-2-phenylcyclopropyl)pyrrolidine-3,4-dicarboxamide] |
| – | – | 0.1 to 50 nM | 0.1 to 50 nM | CCCCCCCC(=O)N1CC(=O)N(Cc2ccc(C(=O)N3C[C@@H](C(=O)N[C@H]4C[C@@H]4c4ccccc4)[C@H](C(=O)N[C@H]4C[C@@H]4c4ccccc4)C3)cc2)C[C@H]1C(=O)NCCCCCC [Compound 076, (3S,4S)-1-(4-(((S)-5-(hexylcarbamoyl)-4-octanoyl-2-oxopiperazin-1-yl)methyl)benzoyl)-N3,N4-bis((1S,2R)-2-phenylcyclopropyl)pyrrolidine-3,4-dicarboxamide] |
| – | – | 0.1 to 50 nM | 0.1 to 50 nM | CCCCCCCCCCCCCCNC(=O)[C@@H]1CN(C(=O)c2ccc(C(=O)N3C[C@@H](C(=O)N[C@H]4C[C@@H]4c4ccccc4)[C@H](C(=O)N[C@H]4C[C@@H]4c4ccccc4)C3)cc2)C[C@H]1OC (relative stereo) [Compound 060, (3S,4S)-1-(4-((3S*,4R*)-3-methoxy-4-(tetradecylcarbamoyl)pyrrolidine-1-carbonyl)benzoyl)-N3,N4-bis((1S,2R)-2-phenylcyclopropyl)pyrrolidine-3,4-dicarboxamide] |
| – | – | 0.1 to 50 nM | 51 to 350 nM | CCCCCCCCCCCCCCNC(=O)C1CN(C(=O)c2ccc(C(=O)N3C[C@@H](C(=O)N[C@H]4C[C@@H]4c4ccccc4)[C@H](C(=O)N[C@H]4C[C@@H]4c4ccccc4)C3)cc2)CCN1 (mixture of isomers) [Compound 054, (3S,4S)—N3,N4-bis ((1S,2R)-2-phenylcyclopropyl)-1-(4-(3-(tetradecylcarbamoyl)piperazine-1-carbonyl)benzoyl) pyrrolidine-3,4-dicarboxamide] |
